Results as given in patent publication US20100184673A1, “USE OF PARATHYROID HORMONE ( 1-34 ) AS ANTI-HIV AGENT” (priority 2007, published 2010).

What was measured:
[1] = tested on: HepG2-2.2.15 cells; assay: Cell viability of HepG2-2.2.15 cells (dye uptake assay); type: cell-based; details: peptide 10 micrograms per ml
Procedure: (§1) HepG2-2.2.15 cells were plated in 96-well microtiter plates. After 16-24 hours the confluent monolayer of HepG2-2.2.15 cells was washed and the medium was replaced with complete medium containing test peptide—10 micrograms per ml—in duplicate. Lamivudine (3TC) was used as the positive control, while media alone was added to the cells as a negative control (virus control). Three days later the culture medium was replaced with fresh medium containing the peptide. Six days following the initial administration of the peptide, the cell culture supernatants was collected, treated with pronase and DNAse and then used in a real-time quantitative TaqMan PCR assay. The PCR-amplified HBV DNA was detected in real-time by monitoring increases in fluorescence signals that result from the exonucleolytic degradation of a quenched fluorescence probe molecule that hybridizes to the mplified HBV DNA. For each PCR amplification, a standard curve was simultaneously generated using dilutions of purified HBV DNA. Antiviral activity was calculated from the reduction in HBV DNA levels (% virus control). A novel dye uptake assay was then employed to measure cell viability, which is used to calculate toxicity (% cell control).

[2] = tested on: HIV-1IIIB; assay: HIV-1 antiviral assay (CPE reduction) in CEM-SS cells, MTS readout; details: for antiviral activity of positive control compounds (in words): assay validity statement; for % CPE reduction in HIV-1 infected CEM-SS cells: peptide 10 micrograms per ml, 6 days post-infection, MTS
[3] = tested on: MRC-5 cells; assay: in vitro; type: cell-based; details: human, 6 days
[4] = tested on: HCMV strain AD169; assay: HCMV plaque reduction assay in MRC-5 cells; details: for % plaque reduction: HCMV in MRC-5 cells, peptide 10 micrograms per ml, 7-10 days
[5] = in vitro; type: cell-based; details: human, MRC-5 cells
[6] = tested on: RAW 264.7 cells; assay: Phagocytosis assay (Fluorescein-labeled Escherichia coli); details: peptide 10 micrograms per ml, flow cytometry
[7] = tested on: Primary Human endothelial cells (HUVEC); assay: Endothelial cell migration assay; type: cell-based; details: peptide 10 micrograms per ml, 22 hours
[8] = tested on: Streptococcus pneumoniae; type: cell-based; details: 5 micrograms per ml
[9] = tested on: A549 cells; assay: Apoptosis prevention assay (C2 ceramide, Annexin-5); type: cell-based, Human; details: 30 min pretreatment, peptide 10 micrograms per ml
Source text: Human A549 cells (carcinomic human alveolar basal epithelial cells) were utilized in the experiments employing the Annexin-5 apoptosis assay. Annexin-5 is a member of a highly conserved protein family that binds acidic phospholipids in a calcium-dependent manner. […] Phosphatidylserine is translocated from the inner side of the plasma membrane to the outer layer when cells undergo death by apoptosis or cell necrosis and serves as a signal by which cell destined for death are recognized by phagocytes. A549 cells were pretreated for 30 min with test peptide—10 micrograms per ml—followed by the exposure to C2 ceramide. Ceramide mediates cell apoptosis through the activation of the mitogen activating protein kinase (MAPK) and the stress activated kinase (JNK/SAPK). C2 ceramide is a synthetic, membrane soluble analog of ceramide.

[10] = tested on: A549 cells; assay: Apoptosis induction assay (Annexin-5); type: cell-based, Human; details: 24 hours, peptide 10 micrograms per ml
Source text: Human A549 cells (carcinomic human alveolar basal epithelial cells) were utilized in the experiments employing the Annexin-5 apoptosis assay. Annexin-5 is a member of a highly conserved protein family that binds acidic phospholipids in a calcium-dependent manner. […] Phosphatidylserine is translocated from the inner side of the plasma membrane to the outer layer when cells undergo death by apoptosis or cell necrosis and serves as a signal by which cell destined for death are recognized by phagocytes. Test peptide—10 micrograms per ml—were exposed for 24 hours to the A549 cells before they were analyzed for signs of apoptosis.

[11] = tested on: A549 cells; assay: Propidium iodide cell cycle assay; type: cell-based, Human; details: 24 hours, peptide 10 micrograms per ml, FACS
Source text: Human A549 cells (carcinomic human alveolar basal epithelial cells) were utilized in the experiments employing the Propidium iodide cell cycle assay. The eukaryotic cell cycle is a series of events that take place in a cell leading to its replication. The regulation of the cell cycle involves steps crucial to the cell, including detecting and repairing genetic damage, and provision of various checks to prevent uncontrolled cell division. The molecular events that control the cell cycle are ordered and directional; that is, each process occurs in a sequential fashion.
Propidium iodide is an intercalating agent and a fluorescent molecule that can be used to stain DNA. Cells were incubated for 24 hours with test peptide—10 micrograms per ml—or left untreated. After that cells were trypsinized, suspended in medium+10% FCS, centrifuged (1000 rpm, 5 min), and the cell pellet resuspended in PBS (1 ml). The cells were pipetted into 2.5 ml absolute EtOH (final concentration approx. 70%) and incubated on ice for 15 min. Thereafter, cells were pelleted at 1500 rpm for 5 min and resuspended in Propidium iodide solution in PBS. After incubation for 40 min at 37° C., cells were analyzed in the FACS.

[12] = tested on: hepatitis B virus (HBV) ayw strain; assay: HBV replication assay in HepG2-2.2.15 cells (TaqMan PCR of secreted HBV DNA); type: cell-based; details: peptide 10 micrograms per ml; six days; HBV DNA in supernatant
Source text: HepG2-2.2.15 is a stable cell line containing the hepatitis B virus (HBV) ayw strain genome (ATCC Cat. No. CRL-11997). Antiviral compounds blocking any late step of viral replication such as transcription, translation, pregenome encapsidation, reverse transcription, particle assembly and release can be identified and characterized using this cell line. In this assay, an active compound will reduce the production of secreted HBV from cells, measured by utilizing real time quantitative PCR (TaqMan) assay to directly and accurately measure HBV DNA copies.
HepG2-2.2.15 cells were plated in 96-well microtiter plates. After 16-24 hours the confluent monolayer of HepG2-2.2.15 cells was washed and the medium was replaced with complete medium containing test peptide—10 micrograms per ml—in duplicate. […] Six days following the initial administration of the peptide, the cell culture supernatants was collected, treated with pronase and DNAse and then used in a real-time quantitative TaqMan PCR assay. The PCR-amplified HBV DNA was detected in real-time by monitoring increases in fluorescence signals that result from the exonucleolytic degradation of a quenched fluorescence probe molecule that hybridizes to the mplified HBV DNA. […] Antiviral activity was calculated from the reduction in HBV DNA levels (% virus control). […]

[13] = tested on: Pseudomonas aeruginosa; type: cell-based; details: 5 micrograms per ml
[14] = tested on: MRSA; details: 5 micrograms per ml
[15] = tested on: Human Peripheral Blood Mononuclear Cells (PBMC); assay: B cell proliferation assay (SAC plus Interleukin-2, 3H-thymidine); type: cell-based; details: peptide 10 micrograms per ml
Procedure: Human Peripheral Blood Mononuclear Cells (PBMC) were obtained from normal human donors. The B cell proliferation was induced by stimulation of the cells with the B cell mitogen Staphylococcus aureus Cowans I (SAC) plus Interleukin-2, either in the absence (positive proliferation control), or in the presence of test peptide—10 micrograms per ml—to examine their effects on the B cell response. 10^5/well PBMC were plated in 96-well microtiter plates and assayed in duplicate with the peptide. Cell cultures were incubated at 37° C. for 3 days in a 5% CO2 incubator and were thereafter pulsed with 1microCi/well ^3H-thymidine for additional 12 hours of culture. At the end of incubation time, the plates were harvested and the cells counted by liquid scintillation for the incorporation of ^3H-thymidine as a measure of B cell proliferation.

[16] = tested on: macrophages prepared from PBMC; assay: TNF alpha production assay (LPS-stimulated macrophages, ELISA); type: cell-based, Human; details: peptide 10 micrograms per ml, lipopolysaccharide 200 ng/ml, overnight
Procedure: Human Peripheral Blood Mononuclear Cells (PBMC) were obtained from normal human donors. The macrophages were prepared by adherence of PBMC to the plastic wells of the plates. […] Not stimulated macrophages served as negative background control.
After overnight incubation, supernatants from the control and LPS-stimulated cultures were harvested and assayed for TNF alpha production employing a TNF alpha specific ELISA.

[17] = in vitro; details: human, CEM-SS cells
[18] = tested on: Human Peripheral Blood Mononuclear Cells (PBMC); assay: T cell proliferation assay (PHA, 3H-thymidine); type: cell-based; details: peptide 10 micrograms per ml
Procedure: Human Peripheral Blood Mononuclear Cells (PBMC) were obtained from normal human donors. The T cell proliferation was induced by stimulation of the cells with the T cell mitogen phytohemagglutinin (PHA), either in the absence (positive proliferation control), or in the presence of test peptide—10 micrograms per ml—to examine their effects on the T cell proliferating response. 10^5/well PBMC were plated in 96-well microtiter plates and assayed in duplicate with the peptide. Cell cultures were incubated at 37° C. for 3 days in a 5% CO2 incubator and were thereafter pulsed with 1microCi/well ^3H-thymidine for additional 12 hours of culture. At the end of incubation time, the plates were harvested and the cells counted by liquid scintillation for the incorporation of ^3H-thymidine as a measure of T cell proliferation.

[19] = Cell viability of HepG2-2.2.15 cells (dye uptake assay); type: cell-based; details: human, peptide 10 micrograms per ml
Procedure: as §1

[20] = tested on: HUVEC; assay: Endothelial tube formation assay; type: cell-based, Human; details: peptide 10 micrograms per ml, 20 hours
Source text: […] control wes vehicle only. […] Raw data were expressed as average tubule lenghs in pixels±standard deviation.

[21] = tested on: spleen cells; assay: Th1/Th2 cytokine profiling assay (Ovalbumin restimulated spleen cells, CBA kit); type: cell-based, Balb/c mice; details: peptide 10 micrograms per ml; Ovalbumin restimulation; 72 hours
Source text: The Balb/c mice (originated in 1923, it is a popular strain and is used in many different research disciplines. Also classified as an inbred from the production of 20 or more successive brother-sister matings, the Balb/c mouse is albino and small in size) were immunized on Days 1, 15, and 29 with Ovalbumin (Ovalbumin is the main protein found in egg white, commonly used to stimulate an immunological reaction in test animals) in PBS (5 micrograms/injection). On day 50, spleens of the mice were harvested (3 weeks after last boost with Ovalbumin). […] Thereafter, additional Ovalbumin was added to the cells at 10 micrograms/ml for in vitro restimulation of the cells. 72 hours later, cell supernatants were harvested and assayed using the Becton Dickinson Mouse Th1/Th2 Cytokine CBA Kit. This kit can be used to measure Interleukin-2 (IL-2), Interleukin-4 (IL-4), Interleukin-5 (IL-5), Interferon-γ (IFN-γ), and Tumor Necrosis Factor-α (TNF-α) protein levels in a single sample. The kit performance has been optimized for analysis of physiologically relevant concentrations (pg/ml levels) of specific cytokine proteins in tissue culture supernatants and serum samples.

Nc1ccn([C@@H]2CS[C@H](CO)O2)c(=O)n1 [3TC, Lamivudine, reference compound]
% Cell viability [1]: 95.8%

Cc1cn([C@H]2C[C@H](N=[N+]=[N-])[C@@H](CO)O2)c(=O)[nH]c1=O [AZT, zidovudine]
antiviral activity of positive control compounds (in words) [2]: expected levels of antiviral activity
% CPE reduction in HIV-1 infected CEM-SS cells [2]: 99%

Nc1nc(O)c2ncn(COC(CO)CO)c2n1 [Ganciclovir]
% Cell viability [3]: 100%
% plaque reduction [4]: 100%
antiviral activity of positive control compound (in words) ([4]; assay validity statement): expected levels of antiviral activity

CC(C)(C)NC(=O)[C@@H]1CN(Cc2cccnc2)CCN1C[C@@H](O)C[C@@H](Cc1ccccc1)C(=O)N[C@H]1c2ccccc2C[C@H]1O [Indinavir, indinavir]
antiviral activity of positive control compounds (in words) [2]: expected levels of antiviral activity
% CPE reduction in HIV-1 infected CEM-SS cells [2]: 100%

CC[C@H](C)[C@H](NC(=O)[C@H](CCC(=O)O)NC(=O)[C@H](CO)NC(=O)[C@@H](NC(=O)[C@@H](N)CO)C(C)C)C(=O)N[C@@H](CCC(N)=O)C(=O)N[C@@H](CC(C)C)C(=O)N[C@@H](CCSC)C(=O)N[C@@H](Cc1cnc[nH]1)C(=O)N[C@@H](CC(N)=O)C(=O)N[C@@H](CC(C)C)C(=O)NCC(=O)N[C@@H](CCCCN)C(=O)N[C@@H](Cc1cnc[nH]1)C(=O)N[C@@H](CC(C)C)C(=O)N[C@@H](CC(N)=O)C(=O)N[C@@H](CO)C(=O)N[C@@H](CCSC)C(=O)N[C@@H](CCC(=O)O)C(=O)N[C@@H](CCCN=C(N)N)C(=O)N[C@H](C(=O)N[C@@H](CCC(=O)O)C(=O)N[C@@H](Cc1c[nH]c2ccccc12)C(=O)N[C@@H](CC(C)C)C(=O)N[C@@H](CCCN=C(N)N)C(=O)N[C@@H](CCCCN)C(=O)N[C@@H](CCCCN)C(=O)N[C@@H](CC(C)C)C(=O)N[C@@H](CCC(N)=O)C(=O)N[C@@H](CC(=O)O)C(=O)N[C@H](C(=O)N[C@@H](Cc1cnc[nH]1)C(=O)N[C@@H](CC(N)=O)C(=O)N[C@@H](Cc1ccccc1)C(=O)O)C(C)C)C(C)C [pTH (1-34)]
viability at 144 h [5]: 100%
% plaque reduction [4]: 0.0%
% of control phagocytosis [6]: 102.9%
% inhibition of migration [7]: −4.0%
% inhibition [8]: 0.0%
% prevention of ceramide induced apoptosis [9]: 23.85%
% of induction [10]: 1.1%
Cell cycle analysis G0/G1 [11]: 59.1
Cell cycle analysis G2/M [11]: 7.5
Cell cycle analysis S [11]: 34.4
% inhibition of HBV replication in HEP G2 cells [12]: 0.0%
% inhibition [13]: 0.0%
% inhibition [14]: 0.0%
% CPE reduction in HIV-1 infected CEM-SS cells [2]: 18.1%
% of SAC/IL2 induced control [15]: 106.0%
% of LPS induction [16]: 117.1%
viability at 10 micrograms per ml [17]: 99.4%
% of PHA induced control [18]: 110.2%
viability at 144 h, 10 micrograms per ml [19]: 100%
% inhibition of tube formation [20]: 28.0%
IFNγ spleen cells; TH1 response (% of control) [21]: 68.6 % of control
IL-2 spleen cells (% of control) [21]: 180.4 % of control
IL-4 spleen cells; TH2 response (% of control) [21]: 135.2 % of control
IL-5 spleen cells; TH2 response (% of control) [21]: 85.9 % of control
TNF-a spleen cells; TH1 response (% of control) [21]: 114.1 % of control
